In patent US20070134231A1, “Method for prolonging activity of autodegradable enzymes and compositions thereof” (priority 2005, published 2007):
Counter-ions that a name gives are not always drawn. Like-named read-outs stand apart in the source and are kept apart here. Where a SMILES comes first, the peptide text is derived from it.

Legend:
human plasmin = biological target: T1, human plasmin (Homo sapiens, UniProt P00747); assay: Plasmin precipitation study in buffer solutions (PBS, pH of about 7.4); assay type: physicochemical; details: for Concentration Range Tested That Did Not Prevent Precipitation at pH of About 7.4: plasmin 1 mg/ml
T1 construct: which cleave a single-chain plasminogen molecule at the Arg^560 -Val^561 peptide bond, producing active plasmin; purchased Talecris, Inc. (Research Triangle Park, North Carolina)
Protocol: This acidified, lyophilized plasmin was reconstituted with 0.9% (by weight) NaCl solution to a concentration of 10 mg/ml. […] Combinations of ε-aminocaproic acid and gelatin or glycerin were also tested. The concentration of plasmin in the additive-containing buffer was 1 mg/ml.

[1] = at 25° C.; cited from earlier work
[2] = buffered acidified water, cited from earlier work
[3] = single additive, pH of about 7.4, plasmin 1 mg/ml, observed within 2 hours

Molecule: CC(O)CO (stereo not shown) [propylene glycol]
- Concentration Range Tested That Did Not Prevent Precipitation at pH of About 7.4 (human plasmin; observed within 2 hours): 2-20% v/v

Molecule: NCCCCCC(=O)O [ε-aminocaproic acid, reference compound]
- Minimum Concentration of Additive Required to Prevent Visually Observed Plasmin Precipitation (human plasmin; Test No. 9: ε-aminocaproic acid in combination with gelatin 0.3% (w/v), pH of about 7.4): 0.1 mM
- Minimum Concentration of Additive Required to Prevent Visually Observed Plasmin Precipitation (human plasmin; Test No. 10: ε-aminocaproic acid in combination with glycerin 6% (v/v), pH of about 7.4): 0.1 mM
- Minimum Concentration of Additive Required to Prevent Visually Observed Plasmin Precipitation (human plasmin; [3]): 1 mM

Molecule: CNCC(=O)O [sarcosine, N-methylglycine]
- Minimum Concentration of Additive Required to Prevent Visually Observed Plasmin Precipitation (human plasmin; [3]): 1 M

Molecule: NCC(=O)NCC(=O)NCC(=O)O [triglycine] (H-Gly-Gly-Gly-OH)
- Minimum Concentration of Additive Required to Prevent Visually Observed Plasmin Precipitation (human plasmin; [3]): 10 mM

Molecule: O=C(O)C(=O)O [oxalic acid]
- Concentration Range Tested That Did Not Prevent Precipitation at pH of About 7.4 (human plasmin; observed within 2 hours): 50 mM

Molecule: O=S(=O)(O)CCNC(CO)(CO)CO [TES, N-tris{hydroxymethyl}-methyl-2-aminoethanesulfonic acid]
- pKa [1]: 7.4

Molecule: O=S(=O)(O)CCNC1CCCCC1 [CHES]
- pKa [1]: 9.5

Molecule: 3-(N,N-bis{2-hydroxyethyl}amino)-2-hydroxypropane [DIPSO]
- pKa [1]: 7.52

Molecule: O=S(=O)(O)CC(O)CNC(CO)(CO)CO (stereo not shown) [TAPSO, 2-hydroxy-3{tris(hydroxymethyl)methylamino}-1-propanesulfonic acid]
- pKa [1]: 7.61

Molecule: C[N+](C)(C)CC(=O)O [betaine, (carboxymethyl)trimethylammonium inner salt]
- Minimum Concentration of Additive Required to Prevent Visually Observed Plasmin Precipitation (human plasmin; [3]): 0.2 M

Molecule: NC[C@H]1CC[C@H](C(=O)O)CC1 [tranexamic acid, trans-4-(aminomethyl)cyclohexanecarboxylic acid, reference compound]
- Minimum Concentration of Additive Required to Prevent Visually Observed Plasmin Precipitation (human plasmin; [3]): 0.5 mM

Molecule: CC(=O)N[C@@H](CCCNC(=N)N)C(=O)O [N-α-acetyl-L-arginine]
- Minimum Concentration of Additive Required to Prevent Visually Observed Plasmin Precipitation (human plasmin; [3]): 50 mM

Molecule: O=C(O)CCCCC(=O)O [adipic acid]
- Concentration Range Tested That Did Not Prevent Precipitation at pH of About 7.4 (human plasmin; observed within 2 hours): 50 mM

Molecule: NCC(=O)O [glycine]
- Concentration Range Tested That Did Not Prevent Precipitation at pH of About 7.4 (human plasmin; observed within 2 hours): 0.1 M

Molecule: N=C(N)NCCC[C@H](N)C(=O)O [L-arginine]
- Minimum Concentration of Additive Required to Prevent Visually Observed Plasmin Precipitation (human plasmin; [3]): 50 mM

Molecule: O=S(=O)(O)CCCCN1CCOCC1 [MOBS, 4-{N-morpholino}butanesulfonic acid]
- pKa [1]: 7.6

Molecule: OC[C@H]1O[C@H](O[C@H]2O[C@H](CO)[C@@H](O)[C@H](O)[C@H]2O)[C@H](O)[C@@H](O)[C@@H]1O [trehalose]
- Concentration Range Tested That Did Not Prevent Precipitation at pH of About 7.4 (human plasmin; observed within 2 hours): 10%

Molecule: NCC(=O)NCC(=O)O [glycylglycine] (H-Gly-Gly-OH)
- Minimum Concentration of Additive Required to Prevent Visually Observed Plasmin Precipitation (human plasmin; [3]): 10 mM

Molecule: OCC(O)CO [glycerin]
- Minimum Concentration of Additive Required to Prevent Visually Observed Plasmin Precipitation (human plasmin; Test No. 10: glycerin in combination with 0.1 mM ε-aminocaproic acid, pH of about 7.4): 6% (v/v)
- Minimum Concentration of Additive Required to Prevent Visually Observed Plasmin Precipitation (human plasmin; [3]): 10% (by weight)

Molecule: NCCCCCCC(=O)O [7-aminoheptanoic acid]
- Minimum Concentration of Additive Required to Prevent Visually Observed Plasmin Precipitation (human plasmin; [3]): 5 mM

Molecule: NCCCC(=O)O [γ-aminobutyric acid]
- Minimum Concentration of Additive Required to Prevent Visually Observed Plasmin Precipitation (human plasmin; [3]): 5 mM

Molecule: CSCC[C@H](N)C(=O)O [L-methionine]
- Concentration Range Tested That Did Not Prevent Precipitation at pH of About 7.4 (human plasmin; observed within 2 hours): 0.2%

Molecule: OC[C@@H](O)[C@@H](O)[C@H](O)[C@@H](O)CO [D-sorbitol]
- Minimum Concentration of Additive Required to Prevent Visually Observed Plasmin Precipitation (human plasmin; [3]): 12% (w/v)

Molecule: NCCCCC(=O)O [5-aminovaleric acid]
- Minimum Concentration of Additive Required to Prevent Visually Observed Plasmin Precipitation (human plasmin; [3]): 1 mM

Molecule: CN(C)CC(=O)O [N,N-dimethylglycine]
- Concentration Range Tested That Did Not Prevent Precipitation at pH of About 7.4 (human plasmin; observed within 2 hours): 0.5-1 M

Molecule: O=S(=O)([O-])[O-].[Na+].[Na+] [sodium sulfate]
- Concentration Range Tested That Did Not Prevent Precipitation at pH of About 7.4 (human plasmin; observed within 2 hours): 0.3-0.6 M

B1: plasmin: serine proteinase, formulated in buffered acidified water (reversibly inactive acidified plasmin) (protein, UniProt P00747 20-580; P00747 581-810, looked up)
Plasmin heavy chain A: EPLDDYVNTQGASLFSVTKKQLGAGSIEECAAKCEEDEEFTCRAFQYHSKEQQCVIMAENRKSSIIIRMRDVVLFEKKVYLSECKTGNGKNYRGTMSKTKNGITCQKWSSTSPHRPRFSPATHPSEGLEENYCRNPDNDPQGPWCYTTDPEKRYDYCDILECEEECMHCSGENYDGKISKTMSGLECQAWDSQSPHAHGYIPSKFPNKNLKKNYCRNPDRELRPWCFTTDPNKRWELCDIPRCTTPPPSSGPTYQCLKGTGENYRGNVAVTVSGHTCQHWSAQTPHTHNRTPENFPCKNLDENYCRNPDGKRAPWCHTTNSQVRWEYCKIPSCDSSPVSTEQLAPTAPPELTPVVQDCYHGDGQSYRGTSSTTTTGKKCQSWSSMTPHRHQKTPENYPNAGLTMNYCRNPDADKGPWCFTTDPSVRWEYCNLKKCSGTEASVVAPPPVVLLPDVETPSEEDCMFGNGKGYRGKRATTVTGTPCQDWAAQEPHRHSIFTPETNPRAGLEKNYCRNPDGDVGGPWCYTTNPRKLYDYCDVPQCAAPSFDCGKPQVEPKKCPGR
Plasmin light chain B: VVGGCVAHPHSWPWQVSLRTRFGMHFCGGTLISPEWVLTAAHCLEKSPRPSSYKVILGAHQEVNLEPHVQEIEVSRLFLEPTRKDIALLKLSSPAVITDKVIPACLPSPNYVVADRTECFITGWGETQGTFGAGLLKEAQLPVIENKVCNRYEFLNGRVQSTELCAGHLAGGTDSCQGDSGGPLVCFEKDKYILQGVTSWGLGCARPNKPGVYVRVSRFVTWIEGVMRNN
modifications: Plasmin acidified formulation
- storage stability ([2]; 4° C.): stable for at least nine months
- storage stability ([2]; room temperature): stable for at least two months
